Data published in patent publication US20060270589A1, “Carotenoids, carotenoid analogs, or carotenoid derivatives for the treatment of visual disabilities” (priority 2005, published 2006).

Key:
[1] = type: physicochemical
Experimental: (§1) 30.13 mg of 3 was added to 1 mL USP-purified water. The sample was rotated for 2 h and then centrifuged for 5 min. After centrifuging, solid was visible in the bottom of the tube. A 125 μL aliquot of the solution was then diluted to 25 mL. The sample was analyzed by UV/Vis spectroscopy at 436 nm, and the absorbance was compared to a standard curve compiled from four standards of known concentration. The concentration of the original supernatant was calculated to be 2.85 mg/mL and the absorptivity was 36.94 AU mL/cm mg. Slight error may have been introduced by the small size of the original aliquot.
as §1, with “Next, 30.80” for “30.13”, “8” for “3”, “411” for “436”, “29.27” for “2.85”, “2.90” for “36.94”

[2] = tested on: superoxide anion generation from phorbol-ester (PMA)-stimulated PMNs; assay: Direct superoxide anion scavenging by EPR spectroscopy (DEPMPO spin-trap) in isolated human neutrophil assay; type: cell-based; details: 40% EtOH, 0.1 mM; EtOH vehicle background 5%; listed as lutein diphosphate, sodium salt
Experimental: Human polymorphonuclear leukocytes (PMNs) were isolated from freshly sampled venous blood of a single volunteer by Percoll density gradient centrifugation as described previously. Briefly, each 10 mL of whole blood was mixed with 0.8 mL of 0.1 M EDTA and 25 mL saline. The diluted blood was then layered over 9 mL Percoll at a specific density of 1.080 g/mL. After centrifugation at 400 g for 20 min at 20° C., the plasma, mononuclear cell, and Percoll layers were removed. Erythrocytes were subsequently lysed by addition of 18 mL ice-cold water for 30 s, followed by 2 mL of 10× PIPES buffer (25 mM PIPES, 110 mM NaCl, and 5 mM KCl, titrated to pH 7.4 with NaOH). […] Afterward, PMNs were counted by light microscopy on a hemocytometer. […]
All EPR measurements were performed using a Bruker ER 300 EPR spectrometer operating at X-band with a TM110 cavity as previously described. The microwave frequency was measured with a Model 575 microwave counter (EIP Microwave, Inc., San Jose, Calif.). […]
Instrument settings used in the spin-trapping experiments were as follows: modulation amplitude, 0.32 G; time constant, 0.16 s; scan time, 60 s; modulation frequency, 100 kHz; microwave power, 20 mW; and microwave frequency, 9.76 GHz. The samples were placed in a quartz EPR .at cell, and spectra were recorded. The component signals in the spectra were identified and quantified as reported previously.

Substance: 3,3′-Diphosphoryloxy-β,ε-carotene sodium salt [Compound 8]
- Increase in aqueous dispersibility versus the disuccinate sodium salt [1]: > 10 fold
- Mean (% inhibition) of superoxide anion signal [2]: (mean % inhibition = 18%) was increased above background scavenging (5%)
